Assays:
[1] = design: method as in 2 sources, one per row (each row's own in cited_ref): ref 14 = [14]; PMID 23386784; doi:10.2147/BTT.S24580; 14 Nooka A , Gleason C , Casbourne D , Lonial S . Relapsed and refractory lymphoid neoplasms and multiple myeloma with a focus on carfilzomib . Biologics 2013; 7 : 13 – 32 . 10.2147/BTT.S24580 233867 ||| ref 6 = [6]; PMID 21752943; doi:10.1124/dmd.111.039164; 6 Yang J , Wang Z , Fang Y , Jiang J , Zhao F , Wong H , et al Pharmacokinetics, pharmacodynamics, metabolism, distribution, and excretion of carfilzomib in rats . Drug Metab Dispos . 2011; 39 : 1873; details: cited from earlier work
[2] = target: T1, proteasome catalytic subunit β5 (Homo sapiens, UniProt P20618+P28074); assay: Immunoblot mobility shift of covalently modified β5 in tumor lysates; design: species or system human (H460 xenograft in mice); details: positive control: tumor lysates incubated with 50 nM CFZ for 2 h in vitro
T1 construct: tumor tissue lysates (10 μg of total protein) were resolved using 12.5% SDS-PAGE; from tissue; host or cells: excised H460 xenograft tumour tissue from NOD/SCID mice
Procedure: Briefly, tumor tissue lysates (10 μg of total protein) were resolved using 12.5% SDS-PAGE and transferred onto a PVDF membrane (Bio-Rad Laboratories). Membranes were blocked in 5% milk in Tris-buffered saline containing 0.05% Tween-20 (TBST) and probed with the following antibodies; for β5 (dilution 1:1000, Abcam) and β-actin (dilution 1:1000, Cell Signaling). Membranes were washed with TBST and probed with the corresponding secondary antibodies conjugated with horseradish peroxidase. Bound antibodies were visualized using an enhanced chemiluminescence substrate (Thermo Fisher Scientific).

## Carfilzomib [CFZ]
[1]; background statement, no reference given
  solubility in aqueous media: practically insoluble
[1]; following intravenous injection, peptide backbone cleavage and epoxide hydrolysis
  share of CFZ eliminated from systemic circulation within 30 min: > 95%
[1]; mice
  maximum tolerated dose: 5 mg/kg
[2]
  β5 band mobility compared with negative control (DMSO): showed a mobility shift

Source: article PMC5342227, “Polymer micelle formulation for the proteasome inhibitor drug carfilzomib: Anticancer efficacy and pharmacokinetic studies in mice” (PLoS ONE, 2017)
